Measurements taken from publication PMC12732608, “Synthesis and Evaluation of Novel 2-((1H-1,2,4-triazol-5-yl)thio)-N-benzylidene-N-phenylacetohydrazide as Potential Antimicrobial Agents” (International Journal of Molecular Sciences, 2025).
Entries after “also recorded” stand apart in the source; their conditions may differ.

Experiments:
[1] = design: method as in earlier work; settings: comparable to ciprofloxacin; cited from earlier work
[2] = MTT cytotoxicity assay on HEK cells; type: cell-based; settings: human, HEK (human embryonic kidney) cells, compared to DMSO control, read-out: cell viability
Method: Cytotoxicity was evaluated on HEK (human embryonic kidney) cell lines using the MTT assay. […] Cells were grown in a medium that was supplemented with 10% FBS and 1% penicillin–streptomycin. This was incubated at 37 °C in a 5% CO2 atmosphere for 24 h. Cells were seeded at 1 × 10^3 cells/well in 96-well plates and allowed to adhere overnight. They were then treated with the test compounds, dissolved in DMSO, at a uniform concentration. […] The control wells contained untreated cells or cells treated with DMSO alone. After 24 h of treatment, 10 µL of the MTT solution (5 mg/mL) was added to each well and incubated for 3 h to allow formazan crystal formation. A solubilization solution (100 µL) was then added to dissolve the crystals. The absorbance at 570 nm was measured using a microplate reader. Cell viability was calculated as a percentage relative to the untreated control. All assays were performed in triplicate.

[3] = test system: Klebsiella aerogenes ATCC 13048; assay: Growth kinetics assay (OD600) against K. aerogenes; type: cell-based; settings: 0.5 mg/mL, 6 h, K. aerogenes ATCC 13048
Method: (§1) Both Gram-positive and Gram-negative bacterial strains were employed in the experiment to assess antibacterial activities of the synthesized compounds. Gram-negative Klebsiella aerogenes ATCC 13048 and Gram-positive Enterococcus species MVBP-18 strains were used for the study. Bacterial strains of both were cultured in Luria–Bertani (LB) broth for optimal growth conditions. Bacterial cultures were sustained by culturing a fresh colony from newly streaked LB agar plates to 5 mL of LB medium and incubated at 37 °C with shaking at 200 rpm continuously for 16–18 h in order to achieve the logarithmic growth phase. Overnight cultures, after incubation, were standardized by dilution to an OD600 of 0.05, which contained equal bacterial inoculum for any experimental condition. These optimized cultures were employed for subsequent antibacterial tests, such as growth kinetics analysis, to determine the impact of the test compound on bacterial growth. A preliminary screening was conducted in a 96-well microplate format. Standardized bacterial cultures were treated with the compounds at a final concentration of 0.5 mg/mL. Control wells included untreated bacteria and a DMSO control. The plate was incubated at 37°C, with shaking at 200 rpm continuously, and bacterial growth was monitored by measuring the OD600 every hour for six hours using a microplate reader ( BioTek Synergy H1). The assay was performed in triplicate.

[4] = test system: K. aerogenes; assay: CFU enumeration (time-kill) against K. aerogenes; type: cell-based, Klebsiella aerogenes; settings: for terminal viable bacterial count: terminal values (3 h time course); for effect on viable bacterial count (CFU assay), in words: within 3 h
Method: as §1, with “[…] Bacterial” for “A preliminary screening was conducted in a 96-well microplate format. Standardized bacterial cultures were treated with the compounds at a final concentration of 0.5 mg/mL. Control wells included untreated bacteria and a DMSO control. The plate was incubated at 37°C, with shaking at 200 rpm continuously, and bacterial”, “both” for “measuring”, “readings over 4–7 h and colony-forming unit (CFU) enumeration. For CFU counting, aliquots from the wells were serially diluted, plated on LB agar, and incubated overnight at 37 °C.” for “every hour for six hours using a microplate reader ( BioTek Synergy H1).”, “resulting colonies were counted to determine the CFU/mL. All validation experiments were also conducted” for “assay was performed”

[5] = test system: E. coli; design: method as in PMID 22906969; settings: comparable to ampicillin; cited from earlier work
[6] = test system: S. aureus; design: method as in PMID 22906969; settings: comparable to ampicillin; cited from earlier work
[7] = test system: Enterococcus species MVBP-18; assay: Growth kinetics assay (OD600) against Enterococcus sp.; type: cell-based; settings: 0.5 mg/mL, 6 h, Enterococcus sp. MV BP 18
Method: as §1, with “The assay was performed in triplicate.” left out

[8] = test system: Enterococcus sp.; assay: CFU enumeration (time-kill) against Enterococcus sp.; type: cell-based; settings: over 3 h incubation
Method: as §1, with “[…] Bacterial” for “A preliminary screening was conducted in a 96-well microplate format. Standardized bacterial cultures were treated with the compounds at a final concentration of 0.5 mg/mL. Control wells included untreated bacteria and a DMSO control. The plate was incubated at 37°C, with shaking at 200 rpm continuously, and bacterial”, “both” for “measuring”, “readings over 4–7 h and colony-forming unit (CFU) enumeration. For CFU counting, aliquots from the wells were serially diluted, plated on LB agar, and incubated overnight at 37 °C.” for “every hour for six hours using a microplate reader ( BioTek Synergy H1).”, “resulting colonies were counted to determine the CFU/mL. All validation experiments were also conducted” for “assay was performed”

Compound | viability at 24 h, 0.5 mg/mL [2] | growth inhibition (OD600 growth kinetics) [3] | effect on viable bacterial count (CFU assay), in words [4] | other results
Cc1ccc(-n2c(SCC(=O)NC3CCCCC3)nnc2-c2ccncc2)cc1 [N-Cyclohexyl-2-[5-(4-pyridyl)-4-(p-tolyl)-4H-1,2,4-triazole-3-sulfanyl]-acetamide] |  |  |  | antibacterial activity [1]: good level of inhibition
O=C(CSc1nc[nH]n1)N(/N=C/c1c(Cl)cccc1Cl)c1ccccc1 [Compound 4j, E-2-((1H-1,2,4-triazol-3-yl)thio)-N′-(2,6-dichlorobenzylidene)-N-phenylacetohydrazide] | 71.6% |  |  | 
O=C(CSc1nc[nH]n1)N(/N=C/c1cccs1)c1ccccc1 [Compound 4n, E-2-((1H-1,2,4-triazol-3-yl)thio)-N-phenyl-N′-(thiophen-2-ylmethylene)acetohydrazide] | 52.8% | most significant growth inhibition | moderate-level reduction | terminal viable bacterial count [4]: 10^8–10^9 CFU/mL
O=C(CSc1nc[nH]n1)N(/N=C/c1ccccc1Cl)c1ccccc1 [Compound 4b, E-2-((1H-1,2,4-triazol-3-yl)thio)-N′-(2-chlorobenzylidene)-N-phenylacetohydrazide] | 68.7% | mild inhibitory activities |  | 
NNC(=O)CSc1nc(N=Cc2ccc(Br)cc2)n[nH]1 [2-{3-[4-bromobenzylidene)amino]-1H-1,2,4-triazol-5-ylthio}acetohydrazide] |  |  |  | antibacterial activity [5]: strong antibacterial activity; antibacterial activity [6]: strong antibacterial activity
O=C(CSc1nc[nH]n1)N(/N=C/c1ccccc1)c1ccccc1 [Compound 4a, E-2-((1H-1,2,4-triazol-3-yl)thio)-N′-benzylidene-N-phenylacetohydrazide] | 72.6% |  |  | 
COc1cc(/C=N/N(C(=O)CSc2nc[nH]n2)c2ccccc2)cc(OC)c1OC [Compound 4l, E-2-((1H-1,2,4-triazol-3-yl)thio)-N-phenyl-N′-(3,4,5-trimethoxybenzylidene)acetohydrazide] | 55.8% | mild inhibitory activities | moderate-level reduction | terminal viable bacterial count [4]: 10^8–10^9 CFU/mL
O=C(CSc1nc[nH]n1)N(/N=C/c1ccccc1F)c1ccccc1 [Compound 4g, E-2-((1H-1,2,4-triazol-3-yl)thio)-N′-(2-fluorobenzylidene)-N-phenylacetohydrazide] | 96% | most significant growth inhibition; also recorded: highest degree of growth inhibition | reduced viable numbers by several orders of magnitude | viable counts ([4]; at 2 h, maintained at 3 h): below 10^7 CFU/mL; growth inhibition (OD600 growth kinetics) [7]: most potent inhibitor; viable bacterial counts [8]: ~ 10^7 CFU/mL
O=C(CSc1nc[nH]n1)N(/N=C/c1cccc(Br)c1)c1ccccc1 [Compound 4h, E-2-((1H-1,2,4-triazol-3-yl)thio)-N′-(3-bromobenzylidene)-N-phenylacetohydrazide] | 73% | mild inhibitory activities |  | 
O=C(CSc1nc[nH]n1)N(/N=C/c1ccc(Br)cc1)c1ccccc1 [Compound 4e, E-2-((1H-1,2,4-triazol-3-yl)thio)-N′-(4-bromobenzylidene)-N-phenylacetohydrazide] | 87.4% |  |  | 
